Assay results taken from PubChem BioAssay (NCI).
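A five-concentration, 48-hour dose response in 96-well plates underlies each endpoint, interpolated linearly between surrounding concentrations. GI50: concentration for 50% inhibition of growth. TGI marks complete inhibition of growth.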

How the values were obtained:
Test in all cases: NCI tumour cell line growth inhibition, 48 h
UACC-62 melanoma = test system: UACC-62 melanoma
KM12 colon = test system: KM12 colon
HCT-15 colon = test system: HCT-15 colon
IGROV1 ovarian = test system: IGROV1 ovarian
HL-60(TB) leukemia = test system: HL-60(TB) leukemia
OVCAR-4 ovarian = test system: OVCAR-4 ovarian
MOLT-4 leukemia = test system: MOLT-4 leukemia
SF-295 CNS = test system: SF-295 CNS
OVCAR-5 ovarian = test system: OVCAR-5 ovarian
MCF7 breast = test system: MCF7 breast

Compound | TGI (UACC-62 melanoma) [µM] | TGI (KM12 colon) [µM] | TGI (HCT-15 colon) [µM] | TGI (IGROV1 ovarian) [µM] | TGI (HL-60(TB) leukemia) [µM] | TGI (OVCAR-4 ovarian) [µM] | TGI (MOLT-4 leukemia) [µM] | TGI (SF-295 CNS) [µM] | TGI (OVCAR-5 ovarian) [µM] | GI50 (MCF7 breast) [µM] | TGI (MCF7 breast) [µM] | GI50 (UACC-62 melanoma) [µM] | GI50 (KM12 colon) [µM] | GI50 (HCT-15 colon) [µM] | GI50 (IGROV1 ovarian) [µM] | GI50 (HL-60(TB) leukemia) [µM] | GI50 (MOLT-4 leukemia) [µM] | GI50 (SF-295 CNS) [µM] | GI50 (OVCAR-5 ovarian) [µM] | GI50 (OVCAR-4 ovarian) [µM]
CC1(Sc2ccccc2)CN(Cc2ccccc2)C1=O (stereo unspecified) | > 100 | > 100 | > 100 | > 100 | > 100 | > 100 | > 100 | > 100 | – | – | – | – | – | – | – | – | – | – | – | –
CCOC(=O)C=C1CCN(C(=O)c2ccccc2)CC1 | > 100 | > 100 | > 100 | > 100 | > 100 | > 100 | > 100 | > 100 | > 100 | – | – | – | – | – | – | – | – | – | – | –
COC(=O)[C@@H]1CSC(=S)N1C(=O)C[C@H]1CC=CC[C@H]1CC(=O)Sc1ccccc1 | 38.3 | 34.1 | 32.3 | 39.7 | 14 | – | 16.7 | 45.3 | 33.8 | – | – | – | – | – | – | – | – | – | – | –
C=C1C(=O)OC2CC3(C)C=CC(=O)C(=C)C3CC12 (stereo unspecified) | 2.92 | 5.57 | 4.09 | 5.04 | – | 6.55 | 3.52 | 26.8 | 8.05 | – | – | – | – | – | – | – | – | – | – | –
CN(C)c1ccc2nc3ccc(=[N+](C)C)cc-3oc2c1 | 19.2 | > 100 | > 100 | 5.01 | 1.2 | – | 5.04 | 22.5 | – | 0.368 | 2.3 | 2.32 | 1.18 | 3.48 | 1.86 | 0.269 | 1.76 | 3.74 | – | –
CCOP(=O)(OCC)C1CCCCOC1=O (stereo unspecified) | > 100 | > 100 | > 100 | > 100 | > 100 | > 100 | > 100 | > 100 | – | – | – | – | – | – | – | – | – | – | – | –
O=C(O)[C@@H]1C2CC([C@@H]1C(=O)O)[C@H](N1C(=O)CCC1=O)[C@@H]2Br (stereo partly specified) | > 100 | > 100 | > 100 | > 100 | > 100 | > 100 | > 100 | > 100 | > 100 | – | – | – | – | – | – | – | – | – | – | –
CC1(C)CCC2(C(=O)OC3OC(CO)C(O)C(O)C3O)CC[C@]3(C)C(=CCC4C5(C)CC[C@H](OC6OC(C(=O)O)C(O)C(O)C6O)C(C)(C)C5CCC43C)C2C1 (stereo partly specified) | 1.92 | 9.47 | 13.3 | > 50 | 3.45 | – | 2.84 | > 50 | 9.41 | 1.6 | > 50 | 0.887 | 2.08 | 6.73 | 1.7 | 1.22 | 0.997 | 2.56 | 3.07 | –
Nc1ncnc2sc(=S)c3c(c12)CCC3 | 85.2 | > 100 | > 100 | > 100 | – | > 100 | 69.7 | > 100 | > 100 | 25.3 | 92.8 | 27.8 | 40.7 | 38.2 | 50.5 | – | 23.2 | 39.6 | 42 | 69.8
COc1cc2cc(Oc3ccc(NC(=O)Nc4ccc(Cl)c(C(F)(F)F)c4)cc3)c(C)nc2cc1OCCN1CCCCC1 | 3.08 | 3.09 | 2.59 | 2.94 | 3.53 | 3.29 | 2.71 | 3.3 | 3.38 | – | – | 1.69 | 1.64 | 1.25 | 1.48 | 1.87 | 1.1 | 1.81 | 1.92 | 1.46
O=C(CC1Sc2ccccc2NC1=O)Nc1cc(Cl)ccc1Cl (stereo unspecified) | > 100 | – | > 100 | > 100 | > 100 | > 100 | > 100 | > 100 | > 100 | – | – | – | – | – | – | – | – | – | – | –
CC(=O)[O][Pb]([O]C(C)=O)([c]1ccccc1)[c]1ccccc1 | 31.1 | > 100 | > 100 | > 100 | > 100 | > 100 | > 100 | > 100 | > 100 | – | – | 3.88 | 12.6 | 7.06 | 5.98 | > 100 | 35 | 46.6 | 25.9 | > 100
CCOC(=O)c1c2c(n(CC(C)C)c1C)-c1nc[nH]c1C(=O)C2=O | – | 31.2 | 27.9 | 36 | 2.82 | 25.3 | 9.45 | 35.9 | – | 16.3 | 29.9 | – | 16.9 | 14.7 | 18.8 | 0.388 | 2.57 | 19.2 | – | 12.7
O=C(NCCCCCCNC(=O)c1cccc2ccccc12)c1cccc2ccccc12 | > 100 | > 100 | > 100 | > 100 | > 100 | 58.6 | > 100 | 3.4 | > 100 | – | – | – | – | – | – | – | – | – | – | –
O=S(=O)(c1ccc(NC(=S)NCc2cccnc2)cc1)N1CCCCC1 | > 100 | – | > 100 | > 100 | – | > 100 | > 100 | > 100 | > 100 | 12.7 | > 100 | 23.4 | – | 13.6 | 23.3 | – | 40.3 | 13 | 5.46 | 23
CC12CCC(=O)C(O1)C1C(=O)c3cc4ccccc4cc3C(=O)C12 (stereo unspecified) | – | 29.5 | 36.8 | > 100 | 48 | 41.2 | 74.1 | – | 69.6 | 12.6 | 33 | – | 12.5 | 17.3 | 23.9 | 19.5 | 10.4 | – | 29.3 | 12.2
CS(=O)(=O)CC1=Nc2nnc(CCCCCCCc3nnc4n3C(=O)C(CS(C)(=O)=O)=N4)n2C1=O | > 100 | > 100 | > 100 | > 100 | > 100 | – | > 100 | > 100 | > 100 | – | – | – | – | – | – | – | – | – | – | –
